Reference: US20260193672A1, “INDUCIBLE CELL SUICIDE SWITCHES AND THEIR USE IN CELL AND GENE THERAPIES” (The General Hospital Corporation, priority 2022, published 2026)

How the values were obtained:
Jurkat cells [1] = test: Competitive growth assay of modified lenalidomide suicide switches; format: cell-based; settings: for cell viability, normalized fluorescence: in the absence of lenalidomide, normalized to % transduced on day 0
From the text: To assess whether further modification of CAD could further enhance the suicide switch, we performed structural modeling of CAD, identifying side chain interactions with R11 and W 11 in the mutant form.

Jurkat cells [2] = test: Loss of BFP+ cells with three degron tags fused to ICAD; format: cell-based; settings: 48 hours of exposure to controller drug; SMASH tag, dTAG or IKZF3 degron fused to ICAD
Experimental: (§1) Unless otherwise indicated, cell death assays with Jurkat or primary human T cells were performed by 48 hour incubation with the relevant drug and flow cytometry analysis for the marker of transduction.
To determine whether the ICAD-degron CAD suicide switch design is generalizable to multiple degron systems, three different degron tags (SMASH, dTag, superdegron) were fused to ICAD to facilitate ICAD degradation.

[3] = tested on: cells transduced to express pairs of BCL-xL and variants of PUMA; test: Growth and survival of cells expressing BCL-xL and PUMA variants fused to 913iK0; format: cell-based; settings: BCL-xL and PUMA variants fused to E3 recruitment domain 913iK0
Experimental: Pairs of pro/anti-apoptotic proteins were evaluated for their ability to work as an effective suicide switch. BCL-xL and BIM transgene pairs were toxic to Jurkat cells transduced to express these lentiviruses, as assessed by total cell number 48 hours after high-titer transduction, see FIG. 1A. […] In this design, the goal was for the pro-apoptotic protein PUMA to bind endogenous anti-apoptotic proteins, and for drug-dependent recruitment to the E3 to result in anti-apoptotic protein ubiquitination, degradation, and cell death.

[4] = tested on: ICAD-degron/CAD suicide switch-positive primary human T cells; test: Depletion of ICAD-degron/CAD suicide switch-positive T cells; format: cell-based; settings: 1 uM lenalidomide treatment
Experimental: as §1
Control of CAR T cell function with a lenalidomide suicide switch was also evaluated.

[5] = tested on: cells expressing ICAD-degron/CAD; test: Cell depletion by ICAD-degron/CAD lenalidomide-inducible suicide switch (summary statement); format: cell-based; settings: lenalidomide-induced, subtherapeutic lenalidomide concentrations
Experimental: as §1

[6] = tested on: Jurkat cells expressing the switch; test: DNA damage assay (gamma-H2AX intracellular flow); format: cell-based
From the text: To determine whether promoter strength modifies ICADdegron-CAD suicide switch efficiency, Jurkat cells were transduced to express the ICAD-degron 2A CAD p.R11W suicide switch was expressed, driven by an EF1alpha or PGK promoter.

[7] = tested on: suicide switch CAR T cells; test: Incucyte live cell imaging co-culture assay, CAR T cell proliferation; format: cell-based, human
Experimental: (§2) On day −1, tissue culture plates were coated with anti-CD71 antibody diluted in PBS. On day 0, the plates were washed with PBS and then Nalm6-luciferase-GFP cells were added to the coated plates. Four hours later, primary human CAR T cells were added at a 1:1 ratio with the Nalm6 cells. Plates were imaged every hour for at least 90 hours ([…] ZOOM, live-cell analysis system). Total green, red, and blue object areas were collected, indicative of GFP+ tumor and mCherry+/mTagBFP2+ CAR and/or suicide switch T cell area.
In summary, the suicide switch can be used to deplete CAR T cells (FIG. 6E).

NALM6 tumor cells = test: Incucyte live cell imaging co-culture assay, tumor cell cytolysis; format: cell-based
Experimental: as §2
Tumor cell cytolysis was evaluated by Incucyte live cell imaging co-culture assay with NALM6 tumor cells.
We also generated a tri-cistronic suicide switch CAR lentivector. The same Incucyte live cell imaging co-culture assay with NALM6 tumor cells and single lentivector ICAD-degron/CAD/CAR was performed in primary human T cells. […] With lenalidomide, anti-tumor cytolysis was prevented.

primary human T cell = test: Four-day growth assay; format: cell-based; settings: compared with other CAD sequences and vector control
Experimental: To test whether variations in CAD modify the performance of CAD/ICAD suicide switch, a primary human T cell four-day growth assay was performed comparing vector control, and then three modifications of ICAD-degron 2A CAD expression, differentiated by the CAD sequences.

[8] = tested on: primary human CAR T cells; test: Competitive proliferation assay of suicide switch-transduced versus untransduced cells; format: cell-based; settings: without lenalidomide
From the text: Cells were stimulated weekly with an equal number of irradiated K562 cells transduced to express CD3 and CD28 scFvs. Flow cytometry was used to enumerate the percentage of mTagBFP2+ cells on days 0, 7, and 14.

primary human T cells = test: Cell depletion, CAD/ICAD versus iCasp9 suicide switch, head-to-head; format: cell-based; settings: dose ranges of lenalidomide and AP1903, normalized to untreated cells
Experimental: as §1

“ICAD-degron-CADp.R11W/E68A: suicide switch transgene with CAD p.R11W/E68A (SEQ ID NO: 29/30)” was tested, and the “cell viability, normalized fluorescence” value (Jurkat cells [1]) was “improved cell viability”.
With `CC[C@H](C(=O)N1CCCC[C@H]1C(=O)O[C@H](CCc1ccc(OC)c(OC)c1)c1ccccc1OCC(=O)NCCCCCCOc1cccc2c1C(=O)N(C1CCC(=O)NC1=O)C2=O)c1cc(OC)c(OC)c(OC)c1` (stereo partly drawn) [dTAG-13, 1-[(2S)-1-Oxo-2-(3,4,5-trimethoxyphenyl)butyl]-(2S)-2-piperidinecarboxylate (1R)-3-(3,4-dimethoxyphenyl)-1-[2-[2-[[6-[[2-(2,6-dioxo-3-piperidinyl)-2,3-dihydro-1,3-dioxo-1H-isoindol-4-yl]oxy]hexyl]amino]-2-oxoethoxy]phenyl]propyl ester] the “drug-dependent cell depletion (loss of BFP+ cells)” value (Jurkat cells [2]) was “allowed for drug-dependent cell depletion”.
In the case of `Nc1cccc2c1CN(C1CCC(=O)NC1=O)C2=O` (stereo not drawn) [lenalidomide], the “effect on growth and survival of cells” value [3] is reported as “did not alter the growth and survival”, the “depletion of suicide switch-positive primary human T cells” value [4] is reported as “successful depletion” and the cell depletion [5] is reported as greater than 90%. The “drug-dependent cell depletion (loss of BFP+ cells)” value (Jurkat cells [2]) was “allowed for drug-dependent cell depletion”, the “time in which DNA damage sensing occurred” value ([6]; gamma-H2AX, timecourse after 1000 nM lenalidomide addition) was “within one hour” and the “time to depletion of the CAR T cells” value ([7]; after 16 hour delayed lenalidomide, without rebound) was no more than 24 h. The “effect on suicide switch CAR T cell expansion” value ([7]; immediate lenalidomide) was “prevented suicide switch CAR T cell expansion”, the “effect on tumor cell depletion by suicide switch CAR T cells” value (NALM6 tumor cells; 16 hour delayed lenalidomide, dual-vector CAR T cells) was “ablated tumor cell depletion” and the “effect on tumor cell cytolysis by suicide switch CAR T cells” value (NALM6 tumor cells; immediate lenalidomide, dual-vector CAR T cells) was “prevented tumor cell cytolysis”. For the same compound, the “effect on anti-tumor cytolysis, single lentivector ICAD-degron/CAD/CAR T cells” value (NALM6 tumor cells; with lenalidomide) was “prevented”.
“ICAD-degron-CADp.R11W/K18A: suicide switch transgene with CAD p.R11W/K18A (SEQ ID NO: 27/28)” was tested, and the “cell viability, normalized fluorescence” value (Jurkat cells [1]) was “improved cell viability”, the cell depletion (Jurkat cells [1]; with 1 uM lenalidomide) was “efficient cell depletion” and the drug-independent competitive growth (Jurkat cells [1]; without lenalidomide) was “most improved”.
With “ICAD-degron 2A CAD p.R11W: multicistronic transgene: C-terminally degron-tagged human ICAD, 2A, human CAD p.R11W (SEQ ID NO: 19/20)” the “cell viability, normalized fluorescence” value (Jurkat cells [1]) was “improved cell viability”, the drug-independent cell fitness (primary human T cell) was “enhanced drug-independent cell fitness” and the cell depletion [5] was greater than 90%. For the same compound, the “DNA damage response by promoter strength” value ([6]; Jurkat cells, EF1alpha promoter compared with PGK promoter) was “enhanced DNA damage response”, the “T cell proliferation in competition with untransduced cells, compared with control” value [8] was “comparable” and the “cell killing compared with iCasp9 switch” value (primary human T cells) was “more complete cell killing”.
`Nc1nc(O)c2ncn(COC(CO)CO)c2n1` [ganciclovir] was tested, and the “drug-dependent cell depletion (loss of BFP+ cells)” value (Jurkat cells [2]) was “but not the SMASH tag, allowed for drug-dependent cell depletion”.
In the case of “ICAD-degron-CADp.Y49W: suicide switch transgene with CAD p.Y49W (SEQ ID NO: 25/26)”, the “cell viability, normalized fluorescence” value (Jurkat cells [1]) is reported as “improved cell viability”.
“ICAD-degron-CADp.R11A: suicide switch transgene with CAD p.R11A (SEQ ID NO: 23/24)” was tested, and the “cell viability, normalized fluorescence” value (Jurkat cells [1]) was “improved cell viability”.
